“And” between values parts separate entries of the source, which are not always exact repeats. Equal values may be shown once.
Columns and labels:
[1] = target: DRD2 (D2 long receptor) wild-type (Homo sapiens, UniProt P14416); assay: Radioligand competition binding, [3H]-N-methylspiperone, HEK293T membranes; details: DRD2; [3H]-methylspiperone (0.8-1.0 nM); read-out: Ki
[2] = target: T1, DRD4 (D4.4 variant) wild-type (Homo sapiens, UniProt P21917); assay: Radioligand competition binding, [3H]-N-methylspiperone; details: DRD4; [3H]-methylspiperone (0.8-1.0 nM); read-out: Ki
T1 sequence (P21917 1-419): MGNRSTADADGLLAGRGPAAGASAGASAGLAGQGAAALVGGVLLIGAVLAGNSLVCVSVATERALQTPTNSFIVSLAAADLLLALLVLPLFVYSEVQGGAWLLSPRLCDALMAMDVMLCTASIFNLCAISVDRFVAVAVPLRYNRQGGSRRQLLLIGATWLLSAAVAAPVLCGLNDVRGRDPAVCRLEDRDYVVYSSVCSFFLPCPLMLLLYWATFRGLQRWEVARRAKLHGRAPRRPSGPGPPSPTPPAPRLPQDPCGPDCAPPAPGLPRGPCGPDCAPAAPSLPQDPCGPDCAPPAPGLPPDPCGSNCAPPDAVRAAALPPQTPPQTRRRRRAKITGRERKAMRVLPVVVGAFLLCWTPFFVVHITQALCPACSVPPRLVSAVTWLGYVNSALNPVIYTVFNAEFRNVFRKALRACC

DRD4 (D4.4 variant) = target: T2, DRD4 (D4.4 variant) (Homo sapiens, UniProt P21917); assay: β-arrestin2 recruitment (Tango); assay type: cell-based; details: for Fig_S10c concentration-response source data, compound alone (replicates): agonist mode
T2 sequence (P21917 1-419): T1 sequence (P21917 1-419)

DRD2 F1103.28L = target: T3, DRD2 F1103.28L (Homo sapiens, UniProt P14416, F110L); assay: β-arrestin2 recruitment (Tango), mutant; assay type: cell-based
T3 construct: expressed in transfected cells; host or cells: HEK293T (ATCC CRL-11268)
T3 sequence (P14416 whole entry F110L): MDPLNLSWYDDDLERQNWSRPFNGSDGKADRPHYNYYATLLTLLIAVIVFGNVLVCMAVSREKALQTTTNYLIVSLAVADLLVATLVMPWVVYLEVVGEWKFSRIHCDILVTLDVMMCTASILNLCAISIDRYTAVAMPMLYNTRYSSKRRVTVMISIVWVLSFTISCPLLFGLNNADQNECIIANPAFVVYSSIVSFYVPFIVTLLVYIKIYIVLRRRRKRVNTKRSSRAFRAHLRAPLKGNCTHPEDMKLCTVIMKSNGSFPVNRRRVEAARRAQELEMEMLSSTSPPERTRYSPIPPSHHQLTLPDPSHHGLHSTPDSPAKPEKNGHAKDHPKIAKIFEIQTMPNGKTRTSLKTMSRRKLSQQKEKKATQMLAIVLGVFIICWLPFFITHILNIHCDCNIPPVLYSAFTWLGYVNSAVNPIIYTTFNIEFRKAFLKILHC

5HT2A = 5HT2A (Homo sapiens, UniProt P28223); assay: β-arrestin2 recruitment (Tango); assay type: cell-based; details: single replicate values
Sequence of 5HT2A (P28223 whole entry): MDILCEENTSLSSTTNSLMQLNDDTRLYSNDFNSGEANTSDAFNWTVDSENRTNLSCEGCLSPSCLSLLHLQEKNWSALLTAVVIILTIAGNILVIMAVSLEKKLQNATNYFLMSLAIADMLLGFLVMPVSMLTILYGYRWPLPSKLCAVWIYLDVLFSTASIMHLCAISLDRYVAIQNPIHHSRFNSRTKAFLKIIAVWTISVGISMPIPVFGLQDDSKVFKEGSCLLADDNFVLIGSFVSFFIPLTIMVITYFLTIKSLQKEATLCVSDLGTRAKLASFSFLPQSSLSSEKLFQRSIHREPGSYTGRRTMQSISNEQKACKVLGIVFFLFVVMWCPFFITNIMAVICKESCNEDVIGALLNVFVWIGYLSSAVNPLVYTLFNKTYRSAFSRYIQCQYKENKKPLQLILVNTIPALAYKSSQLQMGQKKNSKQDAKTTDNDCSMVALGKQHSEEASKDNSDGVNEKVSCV

Sequence of DRD2 (D2 long receptor) wild-type (P14416 whole entry): as the sequence (P14416 whole entry F110L) above, with L110F counted along it

Question: With `CCOc1cccc2cc([C@H](C)NCC3(O)CCCCC3)oc12` [O4SE6] as the compound, how does the Ki [1] read?
Answer: Its Ki is 4.57 µM.

Question: And the Ki [2]?
Answer: The Ki was > 10 µM.

Question: And the EC50 (DRD4 (D4.4 variant); DRD4, Tango, read-out: EC50 ± SEM)?
Answer: The EC50 was > 10 µM.

Question: What about the “Fig_S10c concentration-response source data, compound alone (replicates)” value (DRD4 (D4.4 variant); Log[Drug] -5) of the same compound?
Answer: Its value is 6.217 and 2.763 and 2.001 and 1.287 and 1.775 and 4.058 and 4.003 and 0.06427 and 0.2106.

Question: And the “Fig_S10c concentration-response source data, compound alone (replicates)” value (DRD4 (D4.4 variant); Log[Drug] -5.52)?
Answer: The value was 2.6039 and -1.106 and -1.946 and -0.4701 and 1.404 and 2.39 and 0.8979 and 0.0552 and 0.08381.

Question: What about the “β-arrestin2 recruitment response at DRD4 (source data, replicate values)” value (“β-arrestin2 recruitment response at DRD4” for short) (DRD4 (D4.4 variant); Log[Drug] -6) of the same compound?
Answer: The value was 2.086.

Question: What about the “Fig_S10c concentration-response source data, compound alone (replicates)” value (DRD4 (D4.4 variant); Log[Drug] -6) of the same compound?
Answer: The value was 3.584 and -1.188 and -0.584 and -0.6588 and 0.8796 and 1.83 and 0.7762 and 0.03516 and 0.171.

Question: And the “β-arrestin2 recruitment response at DRD4” value (DRD4 (D4.4 variant); Log[Drug] -6.52)?
Answer: The value was 1.505 and 1.478 and 5.593 and -1.936 and -0.8155 and 0.5983 and 2.508 and 1.037 and -0.4712.

Question: What about the “Fig_S10c concentration-response source data, compound alone (replicates)” value (DRD4 (D4.4 variant); Log[Drug] -6.52) of the same compound?
Answer: The value was 1.007 and 4.325 and 1.323 and -0.8974 and 1.527 and -0.05366 and -0.1047 and 0.03541 and 0.08444.

Question: What about the “β-arrestin2 recruitment response at DRD4” value (DRD4 (D4.4 variant); Log[Drug] -7) of the same compound?
Answer: The value was 2.288 and 4.238 and 0.7634 and -1.02 and 3.3404 and -2.026 and 1.575 and 0.945 and -0.6741.

Question: And the “Fig_S10c concentration-response source data, compound alone (replicates)” value (DRD4 (D4.4 variant); Log[Drug] -7)?
Answer: The value was 1.079 and -1.731 and -1.221 and -1.369 and 0.6898 and 0.678 and 1.948 and 0.1059 and 0.1355.

Question: And the “β-arrestin2 recruitment response at DRD4” value (DRD4 (D4.4 variant); Log[Drug] -7.52)?
Answer: Its value is 1.649 and 0.1326 and 3.251 and -1.741 and -0.5217 and -0.1424 and -0.5236 and 0.6819 and 0.4869.

Question: What about the “β-arrestin2 recruitment response at DRD4” value (DRD4 (D4.4 variant); Log[Drug] -8) of the same compound?
Answer: Its value is 0.1559 and 0.6003 and -0.215 and 3.989 and -1.66 and -2.089 and 1.626 and 2.253 and 0.1073.

Question: And the “β-arrestin2 recruitment response at DRD4” value (DRD4 (D4.4 variant); Log[Drug] -8.52)?
Answer: Its value is 0.09319 and 0.08781 and 1.238 and -1.884 and -2.01 and 2.354 and 0.733 and 0.839 and 0.1558.

Question: What about the “β-arrestin2 recruitment response at DRD4” value (DRD4 (D4.4 variant); Log[Drug] -9) of the same compound?
Answer: The value was 1.025 and 0.8745 and 0.8477 and 1.633 and -1.008 and -1.74 and 1.682 and 0.09555 and 2.31.

Question: And the “β-arrestin2 recruitment response at DRD4” value (DRD4 (D4.4 variant); Log[Drug] -9.52)?
Answer: Its value is 1.007 and 1.419 and 7.892 and -0.8689 and -1.296 and 0.8476 and 1.4149 and 0.894 and 0.2094.

Question: And the “β-arrestin2 recruitment response at DRD4” value (DRD4 (D4.4 variant); Log[Drug] -10)?
Answer: The value was 1.797 and 0.7921 and 2.561 and -1.944 and -1.43 and -2.445 and 0.6793 and 0.5811 (2×).

Question: And the “β-arrestin2 recruitment response at DRD4” value (DRD4 (D4.4 variant); Log[Drug] -10.52)?
Answer: Its value is 1.808 and 0.4319 and 2.3763 and 1.191 and 0.9847 and -1.294 and 0.1099 and -0.2474 and -0.3547.

Question: And the “β-arrestin2 recruitment response at DRD4” value (DRD4 (D4.4 variant); Log[Drug] -11)?
Answer: The value was 0.1559 and 1.383 and -0.06631 and 0.9882 and -1.444 and -1.642 and 1.271 and -0.5746 and 1.065.

Question: And the “β-arrestin2 recruitment response at DRD4” value (DRD4 (D4.4 variant); Log[Drug] -11.52)?
Answer: The value was -0.1308 and 0.7778 and 1.385 and -1.934 and -1.503 and -0.7069 and -0.466 and 1.013 and -1.209.

Question: What about the EC50 (DRD2 F1103.28L) of the same compound?
Answer: Its EC50 is > 10 µM.

Question: And the “Fig_S10k dose-response, drug alone (agonist mode), β-arrestin2 recruitment” value (“Fig_S10k dose-response, drug alone” below) (5HT2A; Log[Drug] -6.52)?
Answer: Its value is 0.09538.

Question: What about the “Fig_S10k dose-response, drug alone” value (5HT2A; Log[Drug] -7) of the same compound?
Answer: The value was 0.3962 and -0.2054 (2×) and 5.128 and 7.247 and 2.453 and 3.603 and 2.6312 and 1.871.

Question: What about the “Fig_S10k dose-response, drug alone” value (5HT2A; Log[Drug] -7.52) of the same compound?
Answer: Its value is 1.849 and 5.363 and 7.4248 and 2.33 and -2.369 and -1.196 and 2.4436 and 3.608 and 1.304.

Question: And the “Fig_S10k dose-response, drug alone” value (5HT2A; Log[Drug] -8)?
Answer: The value was 0.1101 and -1.394 and 0.08804 and 0.4387 and -1.323 and -0.5329 and 3.218 and 3.021 and 2.073.

Question: And the “Fig_S10k dose-response, drug alone” value (5HT2A; Log[Drug] -8.52)?
Answer: Its value is 0.3815 and 3.632 and -0.1981 and 19.2051 and 7.825 and 6.317 and 2.439 and 3.208 and 2.251.

Question: And the “Fig_S10k dose-response, drug alone” value (5HT2A; Log[Drug] -9)?
Answer: Its value is 0.6676 and 2.15 and 0.4035 and 0.1625 and 2.551 and 3.851 and 2.828 and 4.478 and 2.251.

From paper PMC7044277 (Nature Communications, 2020)
